Ten compounds from the supplement of paper PMC4954754 can be followed below.

What all share (conditions): 18 h
The test system of test [1] is HEK293T-Rex ERSE-FLuc. Put plainly: EC50 for ERSE-FLuc reporter activation. As to the method: (§1)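 Dose-response of hit compounds in HEK293T-Rex cells stably expressing ERSE-FLuc or XBP1-RLuc reporters, 18 hr treatment, 1536-well; luminescence normalised to 500 nM thapsigargin (100%) and DMSO (0%), fitted to give EC50 (M) and maximal activation; '>' marks EC50 above the top tested dose (~17 µM).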

In test [2] the test system is HEK293T-Rex XBP1-RLuc. As to the kind of experiment: EC50 for XBP1-RLuc reporter activation. As to the method:
as §1

Test [3] relates to HEK293T-Rex ERSE-FLuc. As to the kind of experiment: maximal ERSE-FLuc activation from dose-response fit, relative to thapsigargin (% of thapsigargin); higher = stronger activation. As to the method: as §1
Test [4] deals with HEK293T-Rex XBP1-RLuc. As to the kind of experiment: maximal XBP1-RLuc activation from dose-response fit, relative to thapsigargin (% of thapsigargin); higher = stronger activation. As to the method: as §1

± gives the uncertainty stated by the source.

`CC(=O)Nc1ccc2nc(-c3ccc(OC(C)=O)cc3)sc2c1`: the “EC50 for ERSE-FLuc reporter activation” value in the test on HEK293T-Rex ERSE-FLuc [1] was > 16.9 µM. Moreover, the “EC50 for XBP1-RLuc reporter activation” value with HEK293T-Rex XBP1-RLuc [2] turned out to be 11.3 µM. For the same compound, the “maximal ERSE-FLuc activation” value in the test with HEK293T-Rex ERSE-FLuc [3] was determined as 15.7 ± 1.8. The “maximal XBP1-RLuc activation” value in the test with HEK293T-Rex XBP1-RLuc [4] is 67 ± 2.2.
The matching figures for `Nc1ccccc1NC(=O)c1ccc(C(=O)Nc2ccccc2N)cc1`: 7.17 µM, > 9.59 µM, 65.8 ± 3.4 and 16.1 ± 6.4.
The matching figures for `N#Cc1c(NC(=O)c2ccc3ncsc3c2)sc2c1CCC2`: > 16.6 µM, > 16.6 µM, 22.2 ± 2.5 and 4.53 ± 1.1.
The matching figures for `C=CCNC(=O)c1cc(-c2ccccc2)on1`: 7.45 µM, > 16.9 µM, 99.6 ± 17 and 10.7 ± 4.1.
On to `Cc1ccc(O)c(NC(=O)CN(C)S(=O)(=O)c2ccc(Cl)cc2)c1`, for which the “EC50 for ERSE-FLuc reporter activation” value with HEK293T-Rex ERSE-FLuc [1] was > 16.9 µM. Further, the “EC50 for XBP1-RLuc reporter activation” value in the test on HEK293T-Rex XBP1-RLuc [2] is > 16.9 µM. The “maximal ERSE-FLuc activation” value in the test with HEK293T-Rex ERSE-FLuc [3] is 43.4 ± 10. Besides, in the test with HEK293T-Rex XBP1-RLuc [4], the “maximal XBP1-RLuc activation” value came to 31.4 ± 0.96.
With `Cc1ccc(O)c(NC(=S)NC(=O)/C=C/c2ccco2)c1`, the “EC50 for ERSE-FLuc reporter activation” value with HEK293T-Rex ERSE-FLuc [1] was > 16.9 µM. Also, in the test on HEK293T-Rex XBP1-RLuc [2], the “EC50 for XBP1-RLuc reporter activation” value was > 16.9 µM. Also, in the test on HEK293T-Rex ERSE-FLuc [3], the “maximal ERSE-FLuc activation” value worked out at 30.2 ± 7.3. For the same compound, the “maximal XBP1-RLuc activation” value in the test with HEK293T-Rex XBP1-RLuc [4] is 5.76 ± 1.5.
Take `Cc1ccc(O)c(NC(=O)c2cc(-c3cccnc3)on2)c1`: in the test with HEK293T-Rex ERSE-FLuc [1], the “EC50 for ERSE-FLuc reporter activation” value was 10.8 µM. Further, the “EC50 for XBP1-RLuc reporter activation” value in the test with HEK293T-Rex XBP1-RLuc [2] is > 16.9 µM. Further, the “maximal ERSE-FLuc activation” value in the test on HEK293T-Rex ERSE-FLuc [3] amounted to 94.4 ± 10. The “maximal XBP1-RLuc activation” value in the test on HEK293T-Rex XBP1-RLuc [4] was 27.9 ± 4.9.
As to `COC(=O)c1c(NC(=O)CCl)sc(C(=O)Nc2cccc([N+](=O)[O-])c2)c1C`, the “EC50 for ERSE-FLuc reporter activation” value in the test with HEK293T-Rex ERSE-FLuc [1] is > 16.9 µM. Also, in the test with HEK293T-Rex XBP1-RLuc [2], the “EC50 for XBP1-RLuc reporter activation” value is > 16.9 µM. Also, in the test on HEK293T-Rex ERSE-FLuc [3], the “maximal ERSE-FLuc activation” value worked out at 32.9 ± 4.5. For the same compound, the “maximal XBP1-RLuc activation” value in the test on HEK293T-Rex XBP1-RLuc [4] stood at 29.6 ± 2.9.
Take `CCCCNC(=O)c1cc(-c2cccs2)on1`: the “EC50 for ERSE-FLuc reporter activation” value in the test on HEK293T-Rex ERSE-FLuc [1] was determined as 6.65 µM. Besides, the “EC50 for XBP1-RLuc reporter activation” value with HEK293T-Rex XBP1-RLuc [2] was > 16.9 µM. Besides, in the test with HEK293T-Rex ERSE-FLuc [3], the “maximal ERSE-FLuc activation” value is 107 ± 7.8. For the same compound, the “maximal XBP1-RLuc activation” value with HEK293T-Rex XBP1-RLuc [4] was found to be 10.3 ± 2.2.
Regarding `Cc1ccc(NC(=O)/C=C/c2ccco2)nc1`, the “EC50 for ERSE-FLuc reporter activation” value in the test on HEK293T-Rex ERSE-FLuc [1] is > 16.9 µM. Also, the “EC50 for XBP1-RLuc reporter activation” value with HEK293T-Rex XBP1-RLuc [2] is > 16.9 µM. Besides, in the test on HEK293T-Rex ERSE-FLuc [3], the “maximal ERSE-FLuc activation” value is 17.5 ± 3.4. The “maximal XBP1-RLuc activation” value in the test on HEK293T-Rex XBP1-RLuc [4] came out at 7.43 ± 1.4.
